Data: patent US5928185A, “Iontophoresis device for the transcutaneous delivery of an active principle such as an anionic oligosaccharide” (Sanofi, priority 1995, dated 1999)

Test: Administration of pentasaccharide sodium salt to minipigs by iontophoresis with periodic current reversal; plasma levels (Example 4)
Type: in vivo, minipig
Protocol: Administration to minipigs of the sodium salt of a pentasaccharide by iontophoresis with set current density with periodic reversal of the current direction.
The following iontophoretic administration tests were carried out on 4 minipigs by using the same current generator and the same type of electrodes as in Example 3, and by applying the following conditions:
The electrodes themselves consisted of 15 μm thick silver films chlorided by electrolytic oxidation in a ratio of 0.5 mAh of silver chloride per cm^2. The reservoirs, also measuring 20 cm^2, consisted of a sheet of blotting paper made of cellulose fibres supplemented with polypropylene fibrils, impregnated to a level of 50 mg/cm^2 with an aqueous solution containing 2% by weight of pentasaccharide and 0.2% by weight of NaCl. Each electrode, the anode and the cathode, contained in all 1 g of solution, i.e. 20 mg of pentasaccharide (1 mg/cm^2) for an active surface area of 20 cm^2. 40 mg of pentasaccharide were therefore engaged in all per animal.
The current generator delivered a constant intensity of 2.5 mA, i.e. 125 μA/cm^2 of direct current with regular reversals of the current direction every 30 minutes for a total time of 8 hours, corresponding to the passage of […] of direct current.
Each of the electrodes, having identical structure and composition, was therefore operated alternately as the cathode and then as the anode, the presence of sodium chloride in each of the reservoirs ensuring their permanent operation as a reversible electrode, thus avoiding any parasitic reaction of hydrolysis (with a change in the pH) or oxidation/reduction of the active principle.
In test 4a, involving 3 animals with an average weight of 11.8 kg, the electrodes were put in place but not connected to the current generator, whereas for all the tests 4b, which concerned 4 animals with an average weight of 12.3 kg, the current of 2.5 mA was applied for 8 hours with automated reversal of the current direction every half hour.
In tests 4a and 4b, a number of blood samples were taken periodically up to 30 hours after the start of each experiment, as in Example 3.
The plasma levels of the various samples are indicated in Table IV for the purpose of comparing tests 4a and 4b with one another and with the results of the tests carried out in Example 3, in particular tests 3c and 3d which correspond to intravenous and subcutaneous injections.

[1] = test 4b: iontophoresis 0.125 mA/cm^2, 8 hours, reversal every 30 minutes

SMILES: O=C(O)C1OC(OC2C(COS(=O)(=O)O)OC(OC3C(C(=O)O)OC(OC4C(COS(=O)(=O)O)OC(O)C(NS(=O)(=O)O)C4O)C(OS(=O)(=O)O)C3O)C(NS(=O)(=O)O)C2OS(=O)(=O)O)C(O)C(O)C1OC1OC(COS(=O)(=O)O)C(O)C(O)C1NS(=O)(=O)O (stereo not shown) [pentasaccharide]
- bioavailability (minipig, plasma, topical, test 4b, 40 mg engaged): ~21%
- average quantity of pentasaccharide administered during the treatment (passive test 4a): zero
- Initial plasma level (test 4a: passive, 0 mA/cm^2): 0 anti-Xa U/mL
- Plasma level at 30 minutes (test 4a: passive, 0 mA/cm^2): 0
- Plasma level at 1 hour (test 4a: passive, 0 mA/cm^2): 0
- Plasma level at 2 hours (test 4a: passive, 0 mA/cm^2): 0
- Plasma level at 4 hours (test 4a: passive, 0 mA/cm^2): 0
- Plasma level at 6 hours (test 4a: passive, 0 mA/cm^2): 0
- Plasma level at 8 hours (test 4a: passive, 0 mA/cm^2): 0
- Plasma level at 10 hours (test 4a: passive, 0 mA/cm^2): 0
- Plasma level at 12 hours (test 4a: passive, 0 mA/cm^2): 0
- Plasma level at 16 hours (test 4a: passive, 0 mA/cm^2): 0
- Plasma level at 26 hours (test 4a: passive, 0 mA/cm^2): 0
- Plasma level at 30 hours (test 4a: passive, 0 mA/cm^2): 0
- quantity of pentasaccharide administered per mAh (test 4b): 372 μg/cm^2
- Initial plasma level [1]: 0 anti-Xa U/mL
- Plasma level at 30 minutes [1]: 0.11 ± 0.05
- Plasma level at 1 hour [1]: 0.16 ± 0.05
- Plasma level at 2 hours [1]: 0.28 ± 0.1
- Plasma level at 4 hours [1]: 0.64 ± 0.2
- Plasma level at 6 hours [1]: 0.57 ± 0.18
- Plasma level at 8 hours [1]: 0.59 ± 0.15
- Plasma level at 10 hours [1]: 0.61 ± 0.16
- Plasma level at 12 hours [1]: 0.58 ± 0.05
- Plasma level at 16 hours [1]: 0.2 ± 0.05
- Plasma level at 26 hours [1]: 0.14 ± 0.02
- Plasma level at 30 hours [1]: 0.05 ± 0.02
- average quantity of pentasaccharide administered during the treatment (test 4b, from area under the curve): 8.45 ± 1.5 mg
